Test results: patent US20230247987A1, “THE USE OF SAFENERS TO IMPROVE TOLERANCE OF ACCASE TOLERANT SORGHUM CROP TO HERBICIDES” (Adama Agan Ltd., priority 2020, published 2023)

How the values were obtained:
Type in all cases: in vivo
[1] = test system: ACCase tolerant sorghum variety BTX430-CHR-ACC1; assay: Greenhouse crop response of ACCase tolerant sorghum to quizalofop with and without isoxadifen; settings: FIG. 1, X-rates 0.5-8 (Quizalofop 39-616 g/ha, Isoxadifen 27-431 g/ha), rated approximately 14 days after application, versus quizalofop without isoxadifen
From the text: Seeds of the proprietary ACCase tolerant sorghum variety BTX430-CHR-ACC1 (ATCC deposit PTA-125106, mutation W1999C) were supplied by S&W. BTX430-CHR-ACC1 sorghum cultivar contains a single mutation in the ACCase gene that confers ACCase tolerance: Tryptophan to Cysteine amino acid substitution at an amino acid position 1999 (W1999C; SEQ ID NO: 7 as disclosed in WO 2018/222715, namely the sequence denoted herein by SEQ ID NO: 6) aligning with the amino acid sequence of SEQ ID NO: 6 (as disclosed in WO 2018/222715, namely the sequence denoted herein by SEQ ID NO: 5). The mutation provides tolerance to quizalofop.
ACCase tolerant Sorghum seeds (S & W Line ID: T19-90001) were planted in commercial greenhouse soil mix in ˜8-cm square pots.
Plants were started in a greenhouse and placed outdoors at ambient air temperatures when temperatures were conducive to sorghum growth.
Soil fertility and moisture were provided on an as needed basis.
Plants were grown to heights of 10 to 13, 15-18, 20 to 25 and 30 to 35 cm for treatment.
Safener was premixed in the ADM.7000.H.2.A formulation.
Sorghum plants were subjected to “Standard Weed Science Percentage Rankings” where 0=no effect of the herbicide and 100%=complete plant death. Injury represents discoloration, stunting and malformation. Ratings were taken approximately 14 days after herbicide application. […]

[2] = test system: shattercane (Sorghum bicolor); assay: Field trial: control of shattercane; settings: after 7 days
Setaria viridis = assay: Field trials: control of Setaria viridis
Panicum miliace = assay: Field trials: control of Panicum miliace
[3] = Table 4 trial, after 33 days, X-rate 0.5: Quizalofop 5 oz/a, Isoxadifen 5 oz/a or none
[4] = Table 4 trial, after 33 days, X-rate 1: Quizalofop 10 oz/a, Isoxadifen 10 oz/a or none
[5] = Table 4 trial, after 33 days, X-rate 2: Quizalofop 20 oz/a, Isoxadifen 20 oz/a or none
[6] = Table 5 second trial, after 27 days, X-rate 0.5: Quizalofop 5 oz/a, Isoxadifen 5 oz/a or none
[7] = Table 5 second trial, after 27 days, X-rate 1: Quizalofop 10 oz/a, Isoxadifen 10 oz/a or none
[8] = Table 5 second trial, after 27 days, X-rate 2: Quizalofop 20 oz/a, Isoxadifen 20 oz/a or none

SMILES	crop response (percentage of sorghum crop displaying phytotoxicity) against the X-Rate [1]	% control Shattercane ([2]; X-rate 0.5: Quizalofop 5 oz/a, Isoxadifen 5 oz/a or none)	% control Shattercane ([2]; X-rate 1: Quizalofop 10 oz/a, Isoxadifen 10 oz/a or none)	% control Shattercane ([2]; X-rate 2: Quizalofop 20 oz/a, Isoxadifen 20 oz/a or none)	% control Setaria viridis (Setaria viridis; [3])	% control Setaria viridis (Setaria viridis; [4])	% control Setaria viridis (Setaria viridis; [5])	% control Setaria viridis (Setaria viridis; [6])	% control Setaria viridis (Setaria viridis; [7])	% control Setaria viridis (Setaria viridis; [8])	% control Panicum miliace (Panicum miliace; [3])	% control Panicum miliace (Panicum miliace; [4])	% control Panicum miliace (Panicum miliace; [5])	% control Panicum miliace (Panicum miliace; [6])	% control Panicum miliace (Panicum miliace; [7])	% control Panicum miliace (Panicum miliace; [8])
O=C(O)C1=NOC(c2ccccc2)(c2ccccc2)C1 [isoxadifen]	significant decrease of crop response															
CCOC(=O)[C@@H](C)Oc1ccc(Oc2cnc3cc(Cl)ccc3n2)cc1 [Quizalofop, quizalofop P-ethyl]		96.8%	96.8%	99%	100%	100%	100%	100%	100%	100%	100%	100%	100%	100%	100%	100%
